The numbers were not newly measured in patent US6849617B2, “Tissue factor antagonists and methods of use thereof” (Sunol Molecular Corporation, priority 1999, dated 2005), which cites them from elsewhere.

This data set has as its target tissue factor (TF) (Homo sapiens, UniProt P13726). Conditions: as disclosed in U.S. application Ser. No. 09/406269.

tissue factor (TF), sequence (P13726 33-295): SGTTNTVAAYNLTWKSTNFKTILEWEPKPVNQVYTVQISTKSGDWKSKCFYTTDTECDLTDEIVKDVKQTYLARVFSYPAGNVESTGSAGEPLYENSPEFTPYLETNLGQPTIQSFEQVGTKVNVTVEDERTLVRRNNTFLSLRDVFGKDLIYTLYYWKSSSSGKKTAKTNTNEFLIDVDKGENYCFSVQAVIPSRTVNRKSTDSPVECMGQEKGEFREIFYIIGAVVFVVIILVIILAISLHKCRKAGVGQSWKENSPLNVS

For `NCCCC(O)(P(=O)(O)O)P(=O)(O)O` [alendronic acid], the TF antagonist activity entry was “effective TF antagonist”.
